Converted amounts (≈) assume the structure as drawn.

The first experiment deals with Citrobacter freundii. The experiment is described as follows: In vitro antibacterial activity, agar dilution method (MIC). Type of experiment: cell-based. The note with it: ATCC43864; Citrobacter freundii ATCC 43864; agar dilution, 35°C, 18 hours; read-out: MIC. As for the experimental part: (§1) According to the relevant operating procedures of the Clinical Laboratory Standards Institute (CLSI) in the United States, an antimicrobial susceptibility testing was conducted using the agar dilution method. […]. The agar was allowed to solidify and set aside for later use.
(§2) The test bacteria were propagated in broth and adjusted to a turbidity of 0.5 McFarland (approximately 1-2 × 10^8 CFU/mL) using a turbidimeter before inoculation. The 0.5 McFarland bacterial solution was then diluted 10-fold in broth (approximately 1-2 × 10^7 CFU/mL). A multipoint inoculator was used to inoculate the above bacterial solution onto a series of plates containing different concentrations of drugs (with an inoculation amount of approximately 10^4 CFU per inoculation site). After incubation at a constant temperature of 35°C for 18 hours, results were observed. The minimum concentration of drugs contained in sterile growth plates was determined as the Minimal Inhibitory Concentration (MIC).
On the technique in general: Agar dilution tests growth on a series of plates holding different concentrations.
By MIC is commonly meant the lowest concentration found to suppress growth. With `C[C@H]1[C@H](NC(=O)/C(=N\OC(C)(C)C(=O)O)c2csc(N)n2)C(=O)N1S(=O)(=O)O` [Aztreonam], the minimum inhibitory concentration (MIC) turned out to be 0.12 µg/mL (≈ 0.276 µM).
In the case of `CO/N=C(\C(=O)N[C@@H]1C(=O)N2C(C(=O)[O-])=C(C[N+]3(C)CCCC3)CS[C@H]12)c1csc(N)n1` [Cefepime], the minimal inhibitory concentration (MIC) is no more than 0.03 µg/mL.

The subject of the next experiment is Enterobacter aerogenes. The experiment is described as above. The experiment is classed as cell-based. The note with it: Klebsiella aerogenes, ATCC13048; Enterobacter aerogenes ATCC 13048; agar dilution, 35°C, 18 hours; read-out: MIC. On the procedure: as §1, §2
On to `C[C@H]1[C@H](NC(=O)/C(=N\OC(C)(C)C(=O)O)c2csc(N)n2)C(=O)N1S(=O)(=O)O` [Aztreonam], for which the MIC amounted to 0.12 µg/mL (≈ 0.276 µM).
As to `CO/N=C(\C(=O)N[C@@H]1C(=O)N2C(C(=O)[O-])=C(C[N+]3(C)CCCC3)CS[C@H]12)c1csc(N)n1` [Cefepime], the MIC is 0.06 µg/mL (≈ 0.125 µM).

In a further experiment the test system is Escherichia coli. The description is as above. The experiment is classed as cell-based. The note with it: Escherichia coli, 18 h, Escherichia coli 13-43 (mcr-1); agar dilution, 35°C, 18 hours; read-out: MIC. As for the experimental part: as §1, §2
For the molecule `C[C@H]1[C@H](NC(=O)/C(=N\OC(C)(C)C(=O)O)c2csc(N)n2)C(=O)N1S(=O)(=O)O` [Aztreonam], the MIC worked out at 16 µg/mL (≈ 36.7 µM).
With `CO/N=C(\C(=O)N[C@@H]1C(=O)N2C(C(=O)[O-])=C(C[N+]3(C)CCCC3)CS[C@H]12)c1csc(N)n1` [Cefepime], the MIC was found to be 2 µg/mL (≈ 4.16 µM).

Staying with this experiment, now noted: Escherichia coli, 18 h, Escherichia coli 17-R28 (CRE, NDM-1-producing); agar dilution, 35°C.
In the case of `CO/N=C(\C(=O)N[C@@H]1C(=O)N2C(C(=O)[O-])=C(C[N+]3(C)CCCC3)CS[C@H]12)c1csc(N)n1` [Cefepime], the minimum inhibitory concentration (MIC) is greater than 128 µg/mL.

The same experiment, now with this note: Escherichia coli, 18 h, Escherichia coli 17-R28 (CRE, NDM-1-producing); agar dilution, 35°C, 18 hours; read-out: MIC.
For `C[C@H]1[C@H](NC(=O)/C(=N\OC(C)(C)C(=O)O)c2csc(N)n2)C(=O)N1S(=O)(=O)O` [Aztreonam], the MIC worked out at 8 µg/mL (≈ 18.4 µM).

The experiment is the same for the next values; noted with them: Escherichia coli, ATCC2469, 18 h, Escherichia coli ATCC 2469 (CRE, NDM-1-producing); agar dilution, 35°C, 18 hours; read-out: MIC.
Turning to `C[C@H]1[C@H](NC(=O)/C(=N\OC(C)(C)C(=O)O)c2csc(N)n2)C(=O)N1S(=O)(=O)O` [Aztreonam], the MIC worked out at 4 µg/mL (≈ 9.19 µM).
The same measure, in the same setting: to `CO/N=C(\C(=O)N[C@@H]1C(=O)N2C(C(=O)[O-])=C(C[N+]3(C)CCCC3)CS[C@H]12)c1csc(N)n1` [Cefepime] belongs 64 µg/mL (≈ 133 µM).

The experiment is the same for the next values; noted with them: Escherichia coli, ATCC35218, 18 h, Escherichia coli ATCC 35218 (ESBLs-producing); agar dilution, 35°C, 18 hours; read-out: MIC.
Turning to `C[C@H]1[C@H](NC(=O)/C(=N\OC(C)(C)C(=O)O)c2csc(N)n2)C(=O)N1S(=O)(=O)O` [Aztreonam], the MIC was no more than 0.03 µg/mL.
For `CO/N=C(\C(=O)N[C@@H]1C(=O)N2C(C(=O)[O-])=C(C[N+]3(C)CCCC3)CS[C@H]12)c1csc(N)n1` [Cefepime], the MIC is no more than 0.03 µg/mL.

The test system of another experiment is Klebsiella pneumoniae. The description is as above. Type of experiment: cell-based. The note with it: Klebsiella pneumoniae, 18 h, Klebsiella pneumoniae 09-20 (mcr-1); agar dilution, 35°C, 18 hours; read-out: MIC. As for the experimental part:
as §1, §2
As for `C[C@H]1[C@H](NC(=O)/C(=N\OC(C)(C)C(=O)O)c2csc(N)n2)C(=O)N1S(=O)(=O)O` [Aztreonam], the minimal inhibitory concentration (MIC) came out at 0.25 µg/mL (≈ 0.574 µM).
With `CO/N=C(\C(=O)N[C@@H]1C(=O)N2C(C(=O)[O-])=C(C[N+]3(C)CCCC3)CS[C@H]12)c1csc(N)n1` [Cefepime], the MIC came out at 1 µg/mL (≈ 2.08 µM).

The experiment is the same for the next values; noted with them: Klebsiella pneumoniae, 18 h, Klebsiella pneumoniae 17-R27 (CRE); agar dilution, 35°C, 18 hours; read-out: MIC.
Regarding `C[C@H]1[C@H](NC(=O)/C(=N\OC(C)(C)C(=O)O)c2csc(N)n2)C(=O)N1S(=O)(=O)O` [Aztreonam], the minimum inhibitory concentration (MIC) worked out at 0.25 µg/mL (≈ 0.574 µM).
On the same count and under the same terms, to `CO/N=C(\C(=O)N[C@@H]1C(=O)N2C(C(=O)[O-])=C(C[N+]3(C)CCCC3)CS[C@H]12)c1csc(N)n1` [Cefepime] belongs 0.5 µg/mL (≈ 1.04 µM).

The experiment is the same for the next values; noted with them: Klebsiella pneumoniae, 18 h, Klebsiella pneumoniae 18-8 (ESBLs-producing); agar dilution, 35°C, 18 hours; read-out: MIC.
Turning to `C[C@H]1[C@H](NC(=O)/C(=N\OC(C)(C)C(=O)O)c2csc(N)n2)C(=O)N1S(=O)(=O)O` [Aztreonam], the MIC turned out to be 1 µg/mL (≈ 2.3 µM).
Same read-out and setting: then `CO/N=C(\C(=O)N[C@@H]1C(=O)N2C(C(=O)[O-])=C(C[N+]3(C)CCCC3)CS[C@H]12)c1csc(N)n1` [Cefepime], with 1 µg/mL (≈ 2.08 µM).

The experiment is the same for the next values; noted with them: Klebsiella pneumoniae, ATCC700603, 18 h, Klebsiella pneumoniae ATCC 700603 (ESBLs-producing); agar dilution, 35°C, 18 hours; read-out: MIC.
`C[C@H]1[C@H](NC(=O)/C(=N\OC(C)(C)C(=O)O)c2csc(N)n2)C(=O)N1S(=O)(=O)O` [Aztreonam]: the MIC worked out at 16 µg/mL (≈ 36.7 µM).
The same measure, in the same setting: to `CO/N=C(\C(=O)N[C@@H]1C(=O)N2C(C(=O)[O-])=C(C[N+]3(C)CCCC3)CS[C@H]12)c1csc(N)n1` [Cefepime] belongs 1 µg/mL (≈ 2.08 µM).

Still in this experiment, the particulars now being: Klebsiella pneumoniae, ATCCBAA2146, 18 h, Klebsiella pneumoniae ATCC BAA-2146 (CRE, NDM-1-producing); agar dilution, 35°C, 18 hours.
Take `C[C@H]1[C@H](NC(=O)/C(=N\OC(C)(C)C(=O)O)c2csc(N)n2)C(=O)N1S(=O)(=O)O` [Aztreonam]: the minimum inhibitory concentration (MIC) is greater than 128 µg/mL.
`CO/N=C(\C(=O)N[C@@H]1C(=O)N2C(C(=O)[O-])=C(C[N+]3(C)CCCC3)CS[C@H]12)c1csc(N)n1` [Cefepime]: the lowest concentration to inhibit growth (MIC) was 128 µg/mL (≈ 266 µM).

Another experiment relates to Pantoea agglomerans. The experiment is described as above. The experiment is classed as cell-based. The note with it: ATCC27993; Pantoea agglomerans ATCC 27993; agar dilution, 35°C, 18 hours; read-out: MIC. On the procedure:
as §1, §2
For `C[C@H]1[C@H](NC(=O)/C(=N\OC(C)(C)C(=O)O)c2csc(N)n2)C(=O)N1S(=O)(=O)O` [Aztreonam], the MIC is no more than 0.03 µg/mL.
The same measure, in the same setting: to `CO/N=C(\C(=O)N[C@@H]1C(=O)N2C(C(=O)[O-])=C(C[N+]3(C)CCCC3)CS[C@H]12)c1csc(N)n1` [Cefepime] belongs 0.06 µg/mL (≈ 0.125 µM).

The next experiment deals with Proteus mirabilis. Described as above. Type of experiment: cell-based. The note with it: ATCC49565; Proteus mirabilis ATCC 49565; agar dilution, 35°C, 18 hours; read-out: MIC. As for the experimental part: as §1, §2
As to `C[C@H]1[C@H](NC(=O)/C(=N\OC(C)(C)C(=O)O)c2csc(N)n2)C(=O)N1S(=O)(=O)O` [Aztreonam], the MIC was no more than 0.03 µg/mL.
With `CO/N=C(\C(=O)N[C@@H]1C(=O)N2C(C(=O)[O-])=C(C[N+]3(C)CCCC3)CS[C@H]12)c1csc(N)n1` [Cefepime], the minimal inhibitory concentration (MIC) amounted to 0.06 µg/mL (≈ 0.125 µM).

The test system of another experiment is Proteus vulgaris. The description is as above. The experiment is classed as cell-based. The following applies: ATCC29905; Proteus vulgaris ATCC 29905; agar dilution, 35°C, 18 hours; read-out: MIC. On the procedure:
as §1, §2
On to `C[C@H]1[C@H](NC(=O)/C(=N\OC(C)(C)C(=O)O)c2csc(N)n2)C(=O)N1S(=O)(=O)O` [Aztreonam], for which the MIC was no more than 0.03 µg/mL.
Consider `CO/N=C(\C(=O)N[C@@H]1C(=O)N2C(C(=O)[O-])=C(C[N+]3(C)CCCC3)CS[C@H]12)c1csc(N)n1` [Cefepime], for which the MIC was no more than 0.03 µg/mL.

Another experiment deals with Pseudomonas aeruginosa. The description is as above. Type of experiment: cell-based. The note with it: Pseudomonas aeruginosa PAO1; agar dilution, 35°C, 18 hours; read-out: MIC. As for the experimental part: as §1, §2
For `C[C@H]1[C@H](NC(=O)/C(=N\OC(C)(C)C(=O)O)c2csc(N)n2)C(=O)N1S(=O)(=O)O` [Aztreonam], the minimal inhibitory concentration (MIC) turned out to be 4 µg/mL (≈ 9.19 µM).
Turning to `CO/N=C(\C(=O)N[C@@H]1C(=O)N2C(C(=O)[O-])=C(C[N+]3(C)CCCC3)CS[C@H]12)c1csc(N)n1` [Cefepime], the MIC was determined as 2 µg/mL (≈ 4.16 µM).

The subject of a further experiment is Serratia marcescens. The experiment is described as above. Type of experiment: cell-based. The note with it: ATCC21074; Serratia marcescens ATCC 21074; agar dilution, 35°C, 18 hours; read-out: MIC. On the procedure: as §1, §2
Turning to `C[C@H]1[C@H](NC(=O)/C(=N\OC(C)(C)C(=O)O)c2csc(N)n2)C(=O)N1S(=O)(=O)O` [Aztreonam], the MIC is 0.12 µg/mL (≈ 0.276 µM).
Consider `CO/N=C(\C(=O)N[C@@H]1C(=O)N2C(C(=O)[O-])=C(C[N+]3(C)CCCC3)CS[C@H]12)c1csc(N)n1` [Cefepime], for which the minimum inhibitory concentration (MIC) stood at 0.06 µg/mL (≈ 0.125 µM).

The subject of the next experiment is Shigella flexneri. The experiment is described as above. Type of experiment: cell-based. The following applies: ATCC12022, Shigella flexneri ATCC 12022, 35°C, 18 hours, read-out: MIC. On the procedure:
According to the relevant operating procedures of the Clinical Laboratory Standards Institute (CLSI) in the United States, an antimicrobial susceptibility testing was conducted using the agar dilution method. A 1920 µg/mL stock solution was serially diluted twofold with sterile water to obtain dilutions of 960, 480, 240, 120, 60, 30, 15, 7.5, 3.75, 1.88, 0.94, 0.47 µg/mL, and 1 mL of the dilution was taken respectively from the dilutions with different concentrations and added to a Petri dish, to which 14 mL of melted MH agar medium was added and mixed thoroughly, and the final concentration of the drug in the petri dish is 128, 64, 32, 16, 8, 4, 2, 1, 0.5, 0.25, 0.12, 0.06, and 0.03 µ g/mL, respectively. The agar was allowed to solidify and set aside for later use.
as §2
Turning to `C[C@H]1[C@H](NC(=O)/C(=N\OC(C)(C)C(=O)O)c2csc(N)n2)C(=O)N1S(=O)(=O)O` [Aztreonam], the minimum inhibitory concentration (MIC) stood at 0.06 µg/mL (≈ 0.138 µM).
On to `CO/N=C(\C(=O)N[C@@H]1C(=O)N2C(C(=O)[O-])=C(C[N+]3(C)CCCC3)CS[C@H]12)c1csc(N)n1` [Cefepime], for which the minimum inhibitory concentration (MIC) was no more than 0.03 µg/mL.
